Source: patent EP4656186A1, “NOVEL SOLID DISPERSION AND METHOD FOR PREPARING SAME” (ST Pharm Co., Ltd., priority 2023, dated 2024)

How the values were obtained:
[1] = Solubility in fasted state simulated intestinal fluid (FaSSIF); assay type: physicochemical; details: thermodynamic from solid, After 4 hours at room temperature
Description: Experimental Example 2: Confirmation of Solubility of Examples 1 to 5 in FaSSIF
The solubility of the solid dispersions prepared in Examples 1 to 5 in fasted state simulated intestinal fluid (FaSSIF) was confirmed, and the results are shown in Table 1.
Experimental Example 4: Confirmation of Solubility of Examples 6 to 7 in FaSSIF
The solubility of the solid dispersions prepared in Examples 6 to 7 in fasted state simulated intestinal fluid (FaSSIF) was confirmed in the same manner as in Experimental Example 2, and the results are shown in Table 2.

[2] = Pharmacokinetic test (in vivo), oral administration, plasma concentration by LC-MS/MS; parameters: species or system rats; details: 10 mg/kg
Procedure: Experimental Example 5: Confirmation of Bioavailability of Examples 1 and 6
Specifically, the drug was administered orally to rats, and blood was collected from the jugular vein at a predetermined time. The collected blood was centrifuged to separate plasma, pretreated, and then the concentration was analyzed by LC-MS/MS. Non-compartmental pharmacokinetic parameters were calculated using WinNonlin (Phoenix™, version 6.1) from the analyzed blood concentration-time data of the drug, and the results are shown in Table 3.

- solubility at 4 h ([1]; Table 1 (Experimental Example 2)): 1.89 µg/mL
- solubility at 4 h ([1]; Table 2 (Experimental Example 4)): 1.66 µg/mL
- AUClast Fold change ([2]; relative to the compound of Chemical Formula I): 1.00
- AUC(0-t) ([2]; rat, plasma): 5460 ng·h/mL
- Cmax ([2]; rat, plasma): 1020 ng/mL
- Tmax ([2]; rat, plasma): 1 h
- half-life ([2]; rat, plasma): 323 min
SMILES: COCCOc1cc(F)c(N2CCN(c3nc4c(nnn4C)c(=O)[nH]3)CC2)c(F)c1 [Compound of Chemical Formula I]
